Data: ChEMBL document CHEMBL3507680, “University of Dundee, Gates Library screen for HepG2 cell viability”

Test: Human HepG2 cell viability assay in 384 well format
Assay type: toxicity, cell-based
Set-up: dose 125 nL, time 70.5 hour; concentration not given beside the values
Conditions: HepG2 cells, read-out: Inhibition

| Structure (SMILES) | cytotoxicity at 70.5 h |
| --- | --- |
| O=C1NCC2(CCCN(C(=O)CCn3cnc4ccccc43)CC2)O1 (stereo unspecified) | -1.01% |
| c1ccc(CCN2CCn3cc(Cn4cccn4)nc3C2)cc1 | -10.6% |
| CN(CC1(O)CCCN(Cc2cccc(F)c2F)C1=O)C1CCCCC1 (stereo unspecified) | -0.975% |
| CNC(=O)CN1CCC(NC(=O)CC(C)CCc2ccccc2)CC1 (stereo unspecified) | 12.1% |
| O=C(NC[C@H]1OC[C@@H]2CCN(c3ccccn3)C[C@@H]21)c1ccco1 | -1.04% |
| CCc1nnc(CNC2CCN(c3ncnc4c(C)csc34)CC2)s1 | -1.72% |
| Cc1cnc(CN(Cc2ccccc2)CC(O)c2cccs2)cn1 (stereo unspecified) | 7.82% |
| Cn1c(CN2CCCc3cc(F)cc(F)c32)cc(=O)n(C)c1=O | -4.68% |
| Cc1cc(CN2CCCC(Cn3cncn3)C2)on1 (stereo unspecified) | -3.16% |
| O=c1[nH]nc2c(N3CCCCCC3)nccn12 | -8.09% |
| CN(C)c1ncnc2c1CCN(CC1CCOCC1)CC2 | -15% |
| CC(=O)Nc1cc(F)c(S(=O)(=O)N(C)CC2CCC2)c(F)c1 | -0.0857% |
| COc1ccccc1OC1CN(Cc2ccc(C(=O)O)cc2)C1 | -8.2% |
| COc1ccc(-c2ccccc2CN)c(OC)c1 | 21.8% |
| O=C(O)C1c2nc[nH]c2CCN1CC(c1ccccc1)c1ccccc1 (stereo unspecified) | -3.04% |
| COCCN(C)CC1CCCN1S(=O)(=O)c1cccc(F)c1F (stereo unspecified) | -4.32% |
| O=C(C[C@@H]1COC[C@H]2CN(CC3CC3)C[C@@H]12)NCc1cccnc1 | -11.6% |
| Cc1ccc(C(=O)N2CCC3(CC2)COC(COc2ccccn2)C3)o1 (stereo unspecified) | -4.24% |
| O=C(O)C1CCN(c2ccc(Sc3ccc(Br)cc3)nn2)CC1 | 26.1% |
| CC(C)(C)c1n[nH]c(C2CN(C(=O)c3ccsc3)CCO2)n1 (stereo unspecified) | -16.5% |
| Nc1ccc(CC2CCCN(Cc3c[nH]cn3)C2)nn1 (stereo unspecified) | -2.3% |

| Structure (SMILES) | cytotoxicity at 70.5 h |
| --- | --- |
| CC(C)CCN1C2(CCN(c3ncccn3)C2)c2ccccc2S1(=O)=O (stereo unspecified) | -11.6% |
| CO[C@H]1CN(C(=O)c2ccnnc2)[C@@H]2COC[C@H]12 | 36.6% |
| CCCn1cc(CN2CCOCC2c2[nH]ncc2C)cn1 (stereo unspecified) | -2.99% |
| COCC1CC2(CCN(C(=O)c3ccc(OC)c(Cl)c3)CC2)CO1 (stereo unspecified) | -8.41% |
| CC(C)NC(=O)c1ccc2c(c1)nc1n2CCN(Cc2ccco2)C1 | -10.4% |
| CC(=O)N1CCCN(Cc2ccon2)c2ccccc21 | 18.6% |
| COc1ccc(C2CCCN2c2cnc3ccccc3n2)c(OC)c1 (stereo unspecified) | -4.21% |
| CCc1c(C)nn(CCNC(=O)c2csc(C)n2)c1C | -6.58% |
| CC1=N[C@@]2(CC[C@@H]3CN(S(C)(=O)=O)C[C@@H]32)C(=O)N1CC(C)C | -15.6% |
| COCC1c2nnn(C)c2CCN1C(=O)CCc1cccc(OC)c1 (stereo unspecified) | -3.47% |
| Cc1[nH]c2c(C)ccc(C)c2c1CC(=O)NCC(O)c1cccnc1 (stereo unspecified) | -10.2% |
| N#Cc1ccc(OCC(=O)N2CCCC(n3cccn3)C2)cc1 (stereo unspecified) | -4.85% |
| CC(=O)N1CCC(C(=O)NCc2cc[nH]n2)(c2ccccc2)CC1 | -5.74% |
| O=C(NC1CCCC1)N1C[C@H]2CN(c3ccncc3)C[C@@]2(C(=O)O)C1 | 14.8% |
| CCn1nc(CC(C)C)cc1C(=O)NCCCN1CCOCC1 | -0.263% |
| COC(=O)c1ccc(Cn2nc(C)cc2C)c(OC)c1 | 2.29% |
| CC(C)(C)c1cn(C2CCN(C(=O)c3cnccn3)CC2)nn1 | -13.1% |
| CC1CN(C(=O)NCCNc2cnccn2)CCO1 (stereo unspecified) | 25.6% |
| CC(C(=O)N1CCCN(c2ccc(C#N)cc2)CC1)n1ccnc1 (stereo unspecified) | -1.24% |
| CN(Cc1ccsc1)C(=O)c1ccc2c(c1)NC(=O)CO2 | -7.5% |
| CS(=O)(=O)N1CCN(C(=O)c2cc(-c3ccco3)cs2)CC1 | 0.0321% |

| Structure (SMILES) | cytotoxicity at 70.5 h |
| --- | --- |
| COc1ccccc1CNC(=O)c1ccccc1-n1cnc(CN)c1 | -9.04% |
| CN(Cc1cccc(C(N)=O)c1)c1ncc(C(N)=O)cc1Cl | -9.7% |
| O=C1COC2(CCN(Cc3ccco3)CC2)CN1 | -7.36% |
| CNC(=O)[C@@H]1COC[C@H]2CN(C(=O)c3ccc(OC)cc3)C[C@H]21 | -2.56% |
| COCCNC(=O)N1CCOCC1c1c(C)nn(C)c1C (stereo unspecified) | -1.43% |
| Cc1cnn(CC2CCCN2C(=O)c2ccc3c(c2)nnn3C)c1 (stereo unspecified) | -6.19% |
| O=C1[C@@H]2CCN(Cc3ccoc3)C[C@@H]2OCCN1c1ccccc1 | -10.9% |
| Cn1cc(CN2CCc3c(COCC4CC4)cncc3C2)cn1 | -1.91% |
| CCC(CC)C(=O)N1CCCc2c(cnn2C)C1 | -1.89% |
| COCCCN(C)c1nc(-c2ccncc2)nc2c1CCN(C(C)=O)C2 | -7.86% |
| O=C(NCc1ccncc1)c1nc2c(o1)CN(C(=O)c1cccnc1)C2 | -0.144% |
| CC(C)OCCCNC(=O)c1ccc(-c2ccco2)[nH]c1=O | -2.82% |
| Cc1nc(-c2ccco2)ccc1C(=O)NCCC(=O)N1CCCCC1 | -103% |
| CN(CCCNc1cc(N2CCCC2CO)ncn1)S(C)(=O)=O (stereo unspecified) | 11.1% |
| CC(C)N1CCCC(CNC(=O)Cc2csc(-c3cccnc3)n2)C1 (stereo unspecified) | -0.239% |
| Cc1nnc(N2CCNCC2)c(C(N)=O)c1C | -16.9% |
| O=C(c1ccc(=O)[nH]n1)N1CCC(CN2CCOCC2)CC1 | -9.25% |
| CCc1cc(NCCNc2ccncc2C)n2nc(C)c(C)c2n1 | -1.4% |
| NC(=O)N1CCC(NCc2cc(Br)ccc2Cl)CC1 | -1.95% |
| COCc1nc(CNc2cc(C)nc(N3CCCCC3)n2)no1 | -7.86% |
| Cc1ccc(OC2(C(=O)O)CCN(C/C=C/c3ccco3)CC2)cn1 | -5.05% |

| Structure (SMILES) | cytotoxicity at 70.5 h |
| --- | --- |
| COCC1CN(C(=O)Cc2cccs2)Cc2nnn(C)c21 (stereo unspecified) | -14.9% |
| CCCN1CCN(C(=O)Nc2ccccc2Cl)[C@H]2CS(=O)(=O)C[C@H]21 | -4.21% |
| Cc1nc(CNC(=O)NC2CCN(c3ncccc3Cl)C2)oc1C (stereo unspecified) | 14.8% |
| CCc1ccc(CN(C)C(=O)c2ccc(CSc3nnc[nH]3)o2)nc1 | -11.2% |
| O=C(N1CCOCC1)N1CC[C@H]2[C@@H]1CCC(=O)N2c1ccccc1 | -1.24% |
| Cc1nccn1CC1CCCN1S(=O)(=O)Cc1cccc(F)c1 (stereo unspecified) | 18.7% |
| NC(=O)N1CCCC(C(=O)N2CCc3c(nc(CC4CC4)[nH]c3=O)C2)C1 (stereo unspecified) | -6.32% |
| CN1CCN(C(=O)c2ccnc(N3CCOC(C(F)(F)F)C3)c2)CC1 (stereo unspecified) | 19% |
| CC(C(=O)NCc1ccnc(N2CCN(C)CC2)c1)S(C)(=O)=O (stereo unspecified) | 22.3% |
| CN1CCN(C(=O)c2n[nH]c3c2CN(C2CCOC2)CC3)CC1 (stereo unspecified) | -10.2% |
| O=C(CN1CCCCC1Cn1cncn1)NCc1ccccn1 (stereo unspecified) | -4.27% |
| Cc1noc(CN(Cc2ccc3c(c2)OCO3)Cc2ccc(C)o2)n1 | -15.7% |
| O=C(Nc1ccccc1)C1=CC2(CCNCC2)c2ccccc21 | 3.63% |
| CCc1nc(CCNC(=O)Nc2cc(C(N)=O)sc2C)cs1 | 17% |
| Cc1ccsc1C(=O)NC1CCS(=O)(=O)c2ccccc21 (stereo unspecified) | -5.17% |
| Cc1noc(CN(C)c2ccccc2)n1 | -13.6% |
| CC(C)NC(=O)C1CN(Cc2ccc(F)cc2)CC12CCOCC2 (stereo unspecified) | -10.5% |
| CS(=O)(=O)N[C@H]1CN(CCOCc2ccccc2)C[C@@H]1C1CC1 | -2.16% |
